Results published in patent publication US8546389B2 (priority 2010, dated 2013).

Tests used:
[1] = tested on: genotype 1b (Con 1) subgenomic replicon cell line; assay: HCV replicon assay, genotype 1b (Renilla luciferase); format: cell-based, HCV genotype 1b (Con 1); conditions: Hepatitis C virus; genotype 1b replicon, 72 hours, luciferase; read-out: genotype 1b EC50 (range class)
Method: A genotype 1b (Con 1) subgenomic replicon cell line based on Blight et al., Science 2000 290: 1972-1974, modified to express a Renilla luciferase reporter gene was used to assess antiviral activity of test compounds. Cell cultures were maintained in a sub-confluent state in DMEM with glutamine, 10% heat-inactivated foetal bovine serum (FBS) and G418 (Geneticin®).
For assay, cells were seeded at a density of 7000 cells/well into 96 well tissue culture trays in culture media lacking G418. Compounds were tested in a three fold dilution series, for example starting from 50 uM. After 72 hours incubation at 37° C. and 5% CO2, Renilla luciferase activity was quantified via the Promega Renilla Luciferase or Renilla-Glo™ Luciferase Assay Systems (Promega corporation. The same method was employed for replicon assays using subgenomic genotype 1a and 2a replicon cell lines with a seeding cell density of 5000 cells/well for the 2a cell lines.
The compound concentration that reduced luciferase activity by 50% (EC50) was calculated using non-linear regression.

[2] = molecular target: 1b (BK) NS5bΔ21 (Hepatitis C virus genotype 1b (isolate BK) (HCV), UniProt P26663); assay: HCV polymerase inhibition assay, genotype 1b; format: biochemical, HCV genotype 1b (BK); conditions: 1b (BK) NS5bΔ21, 33P-GTP incorporation; read-out: 1b polymerase IC50 (range class)
Method: HCV polymerase reactions were carried out using a modified method of Howe et al., Antimicrobial Agents and Chemotherapy 2004 48(12): 4813-4821. Reactions contained a final concentration of, 0.5% DMSO, 50 nM, 1b (BK) NS5bΔ21, 20 mM Tris-HCl pH 7.5, 5 mM MgCl2, 5 mM MnCl2, 3 mM DTT, 0.05% BSA, 0.2 U/μL RNasin, 10 μg/mL Poly(rC) template, GTP (at Km) and 0.05 μCi/μL ^33P-GTP in a total reaction volume of 50 μL. Compounds were tested in a three fold dilution series, for example starting from 50 μM. Reactions were initiated with the addition of GTP and terminated after 1 hour with 50 μL ice cold 0.2 M EDTA. Terminated reactions were transferred to DEAE 96-well filter plates, unincorporated nucleotides washed from the filters and 50 μL scintillation fluid added prior to reading on a scintillation counter. Similarly, a genotype 3a (VRL-69) NS5bΔ21 polymerase enzyme assay was conducted using essentially the same method.
The compound concentration that reduced ^33P-GTP incorporation by 50% (IC50) was calculated using non-linear regression.

Chain of 1b (BK) NS5bΔ21 (P26663 2420-2989): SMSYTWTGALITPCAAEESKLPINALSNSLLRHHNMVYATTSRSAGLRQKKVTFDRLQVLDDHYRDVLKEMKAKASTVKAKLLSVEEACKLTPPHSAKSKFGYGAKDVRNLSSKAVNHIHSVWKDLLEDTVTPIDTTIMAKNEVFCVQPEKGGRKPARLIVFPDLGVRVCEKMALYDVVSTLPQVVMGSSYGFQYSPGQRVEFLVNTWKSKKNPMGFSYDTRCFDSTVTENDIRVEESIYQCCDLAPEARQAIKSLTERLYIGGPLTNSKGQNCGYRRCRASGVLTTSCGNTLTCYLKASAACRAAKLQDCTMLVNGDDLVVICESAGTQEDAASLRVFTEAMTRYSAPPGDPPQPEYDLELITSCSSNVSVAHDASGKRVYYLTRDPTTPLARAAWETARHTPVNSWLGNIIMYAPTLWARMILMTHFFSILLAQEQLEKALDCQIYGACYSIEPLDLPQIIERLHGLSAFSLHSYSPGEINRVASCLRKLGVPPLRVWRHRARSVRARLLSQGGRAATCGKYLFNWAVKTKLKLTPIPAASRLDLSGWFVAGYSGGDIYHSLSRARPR

SMILES	EC50 [1]	IC50 [2]
CNC(=O)c1c2cc(C3CC3)c(N(C3CCN(S(C)(=O)=O)C3)S(C)(=O)=O)cc2nn1-c1ccc(Br)cc1 (centres unmarked) [Compound 52, 2-(4-bromophenyl)-5-cyclopropyl-N-methyl-6-{(methylsulfonyl)[1-(methylsulfonyl)pyrrolidin-3-yl]amino}-2H-indazole-3-carboxamide]	< 990 nM	< 990 nM
CNC(=O)c1c2cc(C3CC3)c(N(CCCO)S(C)(=O)=O)cc2nn1-c1ccc(C2CC2)cc1 [Compound 53, 5-cyclopropyl-2-(4-cyclopropylphenyl)-6-[(3-hydroxypropyl)(methylsulfonyl)amino]-N-methyl-2H-indazole-3-carboxamide]	< 990 nM	1000 to 9990 nM
CNC(=O)c1c2cc(C3CC3)c(N(CCCO)S(C)(=O)=O)cc2nn1-c1ccc(OC)cc1 [Compound 55, 5-cyclopropyl-6-[(3-hydroxypropyl)(methylsulfonyl)amino]-2-(4-methoxyphenyl)-N-methyl-2H-indazole-3-carboxamide]	1000 to 9990 nM	1000 to 9990 nM
CNC(=O)c1c2cc(C3CC3)c(N(CCCF)S(C)(=O)=O)cc2nn1-c1ccc(Cl)cc1 [Compound 57, 2-(4-chlorophenyl)-5-cyclopropyl-6-[3-fluoropropyl(methylsulfonyl)amino]-N-methyl-2H-indazole-3-carboxamide]	< 990 nM	< 990 nM
CNC(=O)c1c2cc(C3CC3)c(N(CCCNC(=O)CCC(=O)O)S(C)(=O)=O)cc2nn1-c1ccc(Nc2ccc(F)cc2)cc1 [Compound 58, 4-[(3-{[5-Cyclopropyl-2-{4-[(4-fluorophenyl)amino]phenyl}-3-(methylcarbamoyl)-2H-indazol-6-yl](methylsulfonyl)amino}propyl)amino]-4-oxobutanoic acid]	10000 to 50000 nM	< 990 nM
CNC(=O)c1c2cc(C3CC3)c(N(CCCNC(C)=O)S(C)(=O)=O)cc2nn1-c1ccc(NCC(C)C)cc1 [Compound 60, 6-{[3-(acetylamino)propyl](methylsulfonyl)amino}-5-cyclopropyl-N-methyl-2-(4-[(2-methylpropyl)amino]phenyl)-2H-indazole-3-carboxamide]	1000 to 9990 nM	1000 to 9990 nM
CNC(=O)c1c2cc(C3CC3)c(N(CCCNC(=O)CCN)S(C)(=O)=O)cc2nn1-c1ccc(Br)cc1 [Compound 61, 6-{[3-(β-Alanylamino)propyl](methylsulfonyl)amino}-2-(4-bromophenyl)-5-cyclopropyl-N-methyl-2H-indazole-3-carboxamide]	1000 to 9990 nM	< 990 nM
CNC(=O)c1c2cc(C3CC3)c(N(CCCNC(=O)[C@H]3CCC[C@H]3C(=O)O)S(C)(=O)=O)cc2nn1-c1ccc(Br)cc1 [Compound 63, (1R,2S)-2-[(3-{[2-(4-Bromophenyl)-5-cyclopropyl-3-(methylcarbamoyl)-2H-indazol-6-yl](methylsulfonyl)amino}propyl)carbamoyl]cyclopentanecarboxylic acid]	< 990 nM	< 990 nM
CNC(=O)c1c2cc(C3CC3)c(N(CCCNC(=O)C3COCCN3C)S(C)(=O)=O)cc2nn1-c1ccc(Br)cc1 (centres unmarked) [Compound 64, 2-(4-Bromophenyl)-5-cyclopropyl-N-methyl-6-{[3-({[4-methylmorpholin-3-yl]carbonyl}amino)propyl](methylsulfonyl)amino}-2H-indazole-3-carboxamide]	< 990 nM	< 990 nM
CNC(=O)c1c2cc(C3CC3)c(N(CCCN(C)C)S(C)(=O)=O)cc2nn1-c1ccc(Br)cc1 [Compound 65, 2-(4-Bromophenyl)-5-cyclopropyl-6-{[3-(dimethylamino)propyl] (methylsulfonyl)amino}-N-methyl-2H-indazole-3-carboxamide]	< 990 nM	< 990 nM
CNC(=O)c1c2cc(C3CC3)c(N(CCCNC(=O)CCC(=O)NC(C)C)S(C)(=O)=O)cc2nn1-c1ccc(Br)cc1 [Compound 67]	1000 to 9990 nM	< 990 nM
CNC(=O)c1c2cc(C3CC3)c(N(CCCNC(=O)CCC(=O)O)S(C)(=O)=O)cc2nn1-c1ccc(Br)cc1 [Compound 68, 4-[(3-{[2-(4-bromophenyl)-5-cyclopropyl-3-(methylcarbamoyl)-2H-indazol-6-yl](methylsulfonyl)amino}propyl)amino]-4-oxobutanoic acid]	10000 to 50000 nM	< 990 nM
CNC(=O)c1c2cc(C3CC3)c(N(CCCN3C(=O)CCC3=O)S(C)(=O)=O)cc2nn1-c1ccc(Br)cc1 [Compound 69, 2-(4-bromophenyl)-5-cyclopropyl-6-{[3-(2,5-dioxopyrrolidin-1-yl)propyl](methylsulfonyl)amino}-N-methyl-2H-indazole-3-carboxamide]	< 990 nM	< 990 nM
CNC(=O)c1c2cc(C3CC3)c(N(CCCN3CCNC3=O)S(C)(=O)=O)cc2nn1-c1ccc(Br)cc1 [Compound 70, 2-(4-Bromophenyl)-5-cyclopropyl-N-methyl-6-{(methylsulfonyl)[3-(2-oxoimidazolidin-1-yl)propyl]amino}-2H-indazole-3-carboxamide]	1000 to 9990 nM	< 990 nM
C=Cc1cc2c(C(=O)NC)n(-c3ccc(F)cc3)nc2cc1N(CC)S(C)(=O)=O [Compound 71, 5-Ethenyl-6-[ethyl(methylsulfonyl)amino]-2-(4-fluorophenyl)-N-methyl-2H-indazole-3-carboxamide]	1000 to 9990 nM	1000 to 9990 nM
CCc1cc2c(C(=O)NC)n(-c3ccc(F)cc3)nc2cc1N(CC)S(C)(=O)=O [Compound 72, 5-ethyl-6-[ethyl(methylsulfonyl)amino]-2-(4-fluorophenyl)-N-methyl-2H-indazole-3-carboxamide]	1000 to 9990 nM	1000 to 9990 nM
CCN(c1cc2nn(-c3ccc(F)cc3)c(C(=O)NC)c2cc1C1=CCCC1)S(C)(=O)=O [Compound 73, 5-(Cyclopent-1-en-1-yl)-6-[ethyl(methylsulfonyl)amino]-2-(4-fluorophenyl)-N-methyl-2H-indazole-3-carboxamide]	1000 to 9990 nM	10000 to 50000 nM
CCN(c1cc2nn(-c3ccc(F)cc3)c(C(=O)NC)c2cc1C1CCCC1)S(C)(=O)=O [Compound 74, 5-cyclopentyl-6-[ethyl(methylsulfonyl)amino]-2-(4-fluorophenyl)-N-methyl-2H-indazole-3-carboxamide]	1000 to 9990 nM	10000 to 50000 nM
CCN(c1cc2nn(-c3ccc(F)cc3)c(C(=O)NC)c2cc1C#CCO)S(C)(=O)=O [Compound 75, 6-[Ethyl(methylsulfonyl)amino]-2-(4-fluorophenyl)-5-(3-hydroxyprop-1-yn-1-yl)-N-methyl-2H-indazole-3-carboxamide]	10000 to 50000 nM	1000 to 9990 nM
CCN(c1cc2nn(-c3ccc(F)cc3)c(C(=O)NC)c2cc1/C=C\CO)S(C)(=O)=O [Compound 76, 6-[ethyl(methylsulfonyl)amino]-2-(4-fluorophenyl)-5[(1Z)-3-hydroxyprop-1-en-1-yl]-N-methyl-2H-indazole-3-carboxamide]	1000 to 9990 nM	10000 to 50000 nM
C#Cc1cc2c(C(=O)NC)n(-c3ccc(F)cc3)nc2cc1N(CC)S(C)(=O)=O [Compound 77, 6-[Ethyl(methylsulfonyl)amino]-5-ethynyl-2-(4-fluorophenyl)-N-methyl-2H-indazole-3-carboxamide]	1000 to 9990 nM	10000 to 50000 nM
CCN(c1cc2nn(-c3ccc(F)cc3)c(C(=O)NC)c2cc1OC(F)F)S(C)(=O)=O [Compound 78, 5-(Difluoromethoxy)-6-[ethyl(methylsulfonyl)amino]-2-(4-fluorophenyl)-N-methyl-2H-indazole-3-carboxamide]	1000 to 9990 nM	10000 to 50000 nM
CNC(=O)c1c2cc(C3CC3)c(N(CCCO)S(C)(=O)=O)cc2nn1-c1ccc(COC(C)C)cc1 [Compound 79, 5-Cyclopropyl-6-[(3-hydroxypropyl)(methylsulfonyl)amino]-N-methyl-2-{4-[(propan-2-yloxy)methyl]phenyl}-2H-indazole-3-carboxamide]	1000 to 9990 nM	1000 to 9990 nM
CNC(=O)c1c2cc(C3CC3)c(-c3c(C)noc3C)cc2nn1-c1ccc(F)cc1 [Compound 83, 5-Cyclopropyl-6-(3,5-dimethyl-1,2-oxazol-4-yl)-2-(4-fluorophenyl)-N-methyl-2H-indazole-3-carboxamide]	1000 to 9990 nM	10000 to 50000 nM
CCOC(=O)CCCN(c1cc2nn(-c3ccc(Br)cc3)c(C(=O)NC)c2cc1C1CC1)S(C)(=O)=O [Compound 88, Ethyl 4-{[2-(4-bromophenyl)-5-cyclopropyl-3-(methylcarbamoyl)-2H-indazol-6-yl](methylsulfonyl)amino}butanoate]	< 990 nM	< 990 nM
